Experimental data as given in patent US20100129800A1, “POLYMERS AND THEIR USE AS FLUORESCENT LABELS” (priority 2007, published 2010).

Assay: Fluorescence properties of the new compounds (excitation and emission wavelengths)
Assay type: physicochemical
Conditions: free compound

Row | Fluorescence Excitation (nm) | Fluorescence emission (nm) | SMILES
1 | 348 | 488 | CC(=O)NC1CC(C(=O)NC2CC(C(=O)NC3CC(C(N)=O)N(C(=O)CNC(=O)c4c5ccccc5nc5c4[nH]c4ccccc45)C3)N(C(=O)CNC(=O)c3c4ccccc4nc4ccccc34)C2)N(C(=O)CNC(=O)c2c3ccccc3nc3c2[nH]c2ccccc23)C1 (centres unmarked) [Example 61, N^4-Acetyl-4-amino-{2-(10H-indolo[3,2-b]quinoline-11-carboxamide)acetyl}prolinyl-4-amino-{2-(acridine-9-carboxamide)acetyl}prolinyl-4-amino-{2-(10H-indolo[3,2-b]quinoline-11-carboxamide)acetyl}prolinamide]
2 | 273 | 498 | CC(=O)NC1CC(C(=O)NC2CC(C(N)=O)N(C(=O)CNC(=O)c3c4ccccc4nc4ccccc34)C2)N(C(=O)CNC(=O)c2c3ccccc3nc3c2[nH]c2ccccc23)C1 (centres unmarked) [Example 54, 10H-Indolo[3,2-b]quinoline-11-carboxylic acid {2-[4-acetylamino-2-(1-{2-[(acridine-9-carbonyl)-amino]-acetyl}-5-carbamoyl-pyrrolidin-3-ylcarbamoyl)-pyrrolidin-1-yl]-2-oxo-ethyl}-amide]
3 | 249 | 442 | CC(=O)NC1CC(C(=O)NC2CC(C(=O)NC3CC(C(=O)NC4CC(C(=O)NC5CC(C(N)=O)N(C(=O)CNC(=O)c6c7ccccc7nc7c6[nH]c6ccccc67)C5)N(C(C)=O)C4)N(C(=O)CNC(=O)c4cc(-c5ccccc5)nc5ccccc45)C3)N(C(C)=O)C2)N(C(=O)CNC(=O)c2c3ccccc3nc3ccccc23)C1 (centres unmarked) [Example 65, N^4-Acetyl-4-amino-{2-(acridine-9-carboxamide)acetyl}prolinyl-4-aminoprolinyl-4-amino-[(2-phenyl-quinoline-4-carboxamide)acetyl]prolinamide-4-aminoprolinyl-4-amino-{2-(10H-indolo[3,2-b]quinoline-11-carboxamide)acetyl}prolinamide]
4 | 274 | 450 | CC(=O)N1CC(NC(=O)CNC(=O)c2c3ccccc3nc3ccccc23)C[C@H]1C(=O)N1CC(NC(=O)CNC(=O)c2c3ccccc3nc3ccccc23)C[C@H]1C(N)=O (some centres unmarked) [Example 52, N^4-Acetyl-4-amino-{2-(acridine-9-carboxamide)acetyl}prolinyl-4-amino-{2-(acridine-9-carboxamide)acetyl}prolinamide]
5 | 338 | 466 | CC(=O)N[C@@H](CCCNC(=O)CNC(=O)c1c2ccccc2nc2c1[nH]c1ccccc12)C(=O)N[C@@H](CCCNC(=O)CNC(=O)c1c2ccccc2nc2c1[nH]c1ccccc12)C(=O)N[C@@H](CCCNC(=O)CNC(=O)c1c2ccccc2nc2c1[nH]c1ccccc12)C(N)=O [Example 71, N^4-Acetyl-5-N-{2-(10H-indolo[3,2-b]quinoline-11-carboxamide)acetyl}ornithinyl-5-N-{2-(10H-indolo[3,2-b]quinoline-11-carboxamide)acetyl}ornithinyl-5-N-{2-(10H-indolo[3,2-b]quinoline-11-carboxamide)acetyl}ornithinamide]
6 | 347 | 488 | CC(=O)NC1CC(C(=O)NC2CC(C(=O)NC3CC(C(=O)NC4CC(C(=O)NC5CC(C(N)=O)N(C(=O)CNC(=O)c6cc(-c7ccccc7)nc7ccccc67)C5)N(C(C)=O)C4)N(C(=O)CNC(=O)c4c5ccccc5nc5ccccc45)C3)N(C(C)=O)C2)N(C(=O)CNC(=O)c2c3ccccc3nc3c2[nH]c2ccccc23)C1 (centres unmarked) [Example 64]
7 | 348 | 505 | CC(=O)NC1CC(C(=O)NC2CC(C(=O)NC3CC(C(N)=O)N(C(=O)CNC(=O)c4c5ccccc5nc5c4[nH]c4ccccc45)C3)N(C(=O)CNC(=O)c3c4ccccc4nc4c3[nH]c3ccccc34)C2)N(C(=O)CNC(=O)c2c3ccccc3nc3c2[nH]c2ccccc23)C1 (centres unmarked) [Example 57, N^4-Acetyl-4-amino-{2-(10H-indolo[3,2-b]quinoline-11-carboxamide)acetyl}prolinyl-4-amino-{2-(10H-indolo[3,2-b]quinoline-11-carboxamide)acetyl}prolinyl-{2-(10H-indolo[3,2-b]quinoline-11-carboxamide)acetyl}prolinamide]
8 | 308 | 500 | CC(=O)NC1CC(C(=O)NC2CC(C(N)=O)N(C(=O)CNC(=O)c3c4ccccc4nc4c3[nH]c3ccccc34)C2)N(C(=O)CNC(=O)c2c3ccccc3nc3ccccc23)C1 (centres unmarked) [Example 55, 10H-Indolo[3,2-b]quinoline-11-carboxylic acid (2-{4-[4(4-acetylamino-1-{2-[(acridine-9-carbonyl)-amino]-acetyl}-pyrrolidine-2-carbonyl)-amino]-2-carbamoyl-pyrrolidin-1-yl}-2-oxo-ethyl)-amide]
9 | 248 | – | CC(=O)N[C@@H](CCCNC(=O)CNC(=O)c1c2ccccc2nc2ccccc12)C(=O)N[C@@H](CCCNC(=O)CNC(=O)c1c2ccccc2nc2c1[nH]c1ccccc12)C(=O)N[C@@H](CCCNC(=O)CNC(=O)c1c2ccccc2nc2c1[nH]c1ccccc12)C(N)=O [Example 70, N^4-Acetyl-5-N-{2-(acridine-9-carboxamide)acetyl}ornithinyl-5-N-{2-(10H-indolo[3,2-b]quinoline-11-carboxamide)acetyl}ornithinyl-5-N-{2-(10H-indolo[3,2-b]quinoline-11-carboxamide)acetyl}ornithinamide]
10 | 275 | 440 | CC(=O)NC1CC(C(=O)NC2CC(C(=O)NC3CC(C(N)=O)N(C(=O)CNC(=O)c4c5ccccc5nc5ccccc45)C3)N(C(=O)CNC(=O)c3c4ccccc4nc4ccccc34)C2)N(C(=O)CNC(=O)c2c3ccccc3nc3ccccc23)C1 (centres unmarked) [Example 56, N^4-Acetyl-4-amino-{2-(acridine-9-carboxamide)acetyl}prolinyl-4-amino-{2-(acridine-9-carboxamide)acetyl}prolinyl-4-amino-{2-(acridine-9-carboxamide)acetyl}prolinamide]

Continued, compound first:

Row | SMILES | Fluorescence Excitation (nm) | Fluorescence emission (nm)
11 | CC(O)C(CO)NC(=O)CNC(=O)c1c2ccccc2nc2ccccc12 (centres unmarked) [Compound 2d, N-((1,3-dihydroxybutan-2-ylcarbamoyl)methyl)acridine-9-carboxamide] | 247 | 440
12 | C[C@@H](O)[C@H](CO)NC(=O)CN1c2ccccc2C=C2C3C=CC=CC3=NC21 (stereo partly drawn) [Compound 2f, N-((2S, 3R)-1,3-dihydroxybutan-2-yl)-(4a, 10a-dihydro-10,11-diazabenzo[b]fluoren-10-yl)acetamide] | 261 | 456
13 | NC(=O)CCCOP(=O)(O)O[C@H](CNc1c2ccccc2nc2ccccc12)COP(=O)(O)O[C@@H](CO)CNc1c2ccccc2nc2ccccc12 [Example 33, O-[(R)-3-(Acridin-9-ylamino)-1-hydroxy-propane-2-yl]-phosphate (2-1) O-{2-N-(acridine-9-ylamino)-2-oxyprop-1-yl} phosphate(2-4) 4-hydroxybutirame] | 359 | 440
14 | CC(=O)NC1CC(C(N)=O)N(C(=O)CNC(=O)c2c3ccccc3nc3c2[nH]c2ccccc23)C1 (centres unmarked) [Example 51, N-{2-(10H-indolo[3,2-b]quinoline-11-carboxamide)acetyl}-4-N-acetamidoprolinamide] | 347 | 502
15 | CC(O)C(COP(=O)(O)OC(C)C(CO)NC(=O)c1c2ccccc2nc2ccccc12)NC(=O)c1cc(-c2ccccc2)nc2ccccc12 (centres unmarked) [Example 36, O-{2-N-(acridine-9-carbamoyl)-1-hydroxybut-3-yl} and O-{2-N-(2-phenylquinoline-4-carbamoyl-3-hydroxybutan-1-yl)} phosphate] | 252 | 403
16 | OC[C@H](O)CNc1c2ccccc2nc2ccccc12 [Compound 5a, (R)-3-(Acridin-9-ylamino)propane-1,2-diol] | 433 | –
17 | C[C@@H](O)[C@H](CO)NC(=O)c1cc(-c2ccccc2)nc2ccccc12 [Compound 2e, N-((2S, 3R)-1,3-dihydroxybutan-2-yl)-2-phenylquinoline-4-carboxamide] | 326 | 377
18 | CC(O)C(COP(=O)(O)OC(C)C(COP(=O)(O)OC(C)C(CO)NC(=O)c1c2ccccc2nc2ccccc12)NC(=O)c1c2ccccc2nc2c1[nH]c1ccccc12)NC(=O)Cn1c2nc3ccccc3c-2cc2ccccc21 (centres unmarked) [Example 45, O-{2-N-(Acridine-9-carbamoyl)-(1-hydroxybut-3-yl)} phosphate (3-1) O-{2-N-(10H-indolo[3,2-d]quinoline-11-carbamoyl)-3-oxybut-1-yl} phosphate (3-1) O-{2-N-(5H-indolo[2,3-b]quinolin-5-yl)acetamido-3-hydroxybut-1-yl)] | 271 | 449
19 | CC(O)C(COP(=O)(O)OC(C)C(COP(=O)(O)OC(C)C(CO)NC(=O)c1c2ccccc2nc2ccccc12)NC(=O)c1c2ccccc2nc2c1[nH]c1ccccc12)NC(=O)CNC(=O)c1c2ccccc2nc2ccccc12 (centres unmarked) [Example 38, O-{2-N-(Acridine-9-carbamoyl)-(1-hydroxybut-3-yl)} phosphate (3-1) O-{2-N-(10H-indolo[3,2-d]quinoline-11-carbamoyl)-3-oxybut-1-yl} phosphate (3-1) O-{2-N-(acridine-9-carboxamido)acetamidol-(3-hydroxybut-1-yl)}] | 359 | 438
20 | CC(O)C(COP(=O)(O)OC(C)C(CO)NC(=O)c1cc(-c2ccccc2)nc2ccccc12)NC(=O)c1cc(-c2ccccc2)nc2ccccc12 (centres unmarked) [Example 35, O-{2-N-(2-phenylquinoline-4-carbamoyl-1-hydroxybutan-3-yl)} and O-{2-N-(2-phenylquinoline-4-carbamoyl-3-hydroxybutan-1-yl)} phosphate] | 330 | 395
